{
  "source": "patent US20160264593A1",
  "about": "(priority 2013, published 2016)",
  "assay": "in vivo",
  "details": "rat, in vivo; for Tmax: Tmax of 100; for MRT: MRT of 100",
  "method": "100 was administrated via iv route at 0.5, 1.0 and 1.5 mg/kg into SD rats. The blood, liver and brain tissue samples were collected at predetermined times from rats.\nTwelve (12) female SD rats per group were dosed by iv with 100. The rats were fasted overnight prior to dosing, with free access to water. Foods were withheld for 2 hours post-dose. Blood, liver and brain tissue samples in two animals each group were collected at each time point, within 10% of the scheduled time for each time point. Two extra animals were used for analytic method development. Blood (>0.3 mL) were collected via aorta abdominalis in anaesthetic animalsinto tubes containing heparin at 15 min, 1, 2, 6, 10 and 24 hours after iv administration. Liver and brain tissues were collected immediately after animal death. The liver and brain tissues were excised and rinsed with cold saline to avoid blood residual. Upon collection, each sample was placed on ice and the blood samples were subsequently centrifuged (4° C., 11000 rpm, 5 min) to separate plasma. The obtained plasma, liver and brain tissue samples were stored at −70° C. until LC-MS/MS analysis.\nAUC0-∞ (AUC/NF) is the area under the plasma concentration-time curve with last concentration extrapolated based on the elimination rate constant.",
  "key": {"[1]": {"details": "female, Sprague-Dawley (SD), iv, 0.5 mg/kg, 100 brain concentration"}, "[2]": {"details": "female, Sprague-Dawley (SD), iv, 0.5 mg/kg, 100 liver concentration"}, "[3]": {"details": "female, Sprague-Dawley (SD), iv, 1 mg/kg, 100 liver concentration"}, "[4]": {"details": "female, Sprague-Dawley (SD), iv, 1.5 mg/kg, 100 brain concentration"}, "[5]": {"details": "female, Sprague-Dawley (SD), iv, 1.5 mg/kg, 100 liver concentration"}, "[6]": {"details": "female, Sprague-Dawley, iv, 0.5 mg/kg, 100 plasma concentration"}, "[7]": {"details": "female, Sprague-Dawley, iv, 1 mg/kg, 100 plasma concentration"}, "[8]": {"details": "female, Sprague-Dawley, iv, 1.5 mg/kg, 100 plasma concentration"}},
  "data": [
    {"smiles": "CN1CCN(C(=O)C2C3CCC(O3)C2C(=O)O)CC1", "note": "(stereo not drawn) [Compound 100, 3-(4-methylpiperazine-1-carbonyl)-7-oxa-bicyclo[2,2,1]-heptane-2-carboxylic acid]", "values": [
      {"measurement": "AUC(0-inf)", "setting": "female, SD, iv, 0.5 mg/kg", "result": 706, "unit": "ng·h/mL"},
      {"measurement": "AUC(0-t)", "setting": "female, SD, iv, 0.5 mg/kg", "result": 696, "unit": "ng·h/mL"},
      {"measurement": "Tmax of 100", "setting": "female, SD, iv, 0.5 mg/kg", "result": 0.25, "unit": "h"},
      {"measurement": "Cmax", "setting": "female, SD, iv, 0.5 mg/kg, Cmax of 100", "result": 1110, "unit": "ng/mL"},
      {"measurement": "Tmax", "setting": "female, SD, iv, 0.5 mg/kg", "result": 0.25, "unit": "h"},
      {"measurement": "AUC(0-inf)", "setting": "female, SD, iv, 1 mg/kg", "result": 2830, "unit": "ng·h/mL"},
      {"measurement": "AUC(0-t)", "setting": "female, SD, iv, 1 mg/kg", "result": 1920, "unit": "ng·h/mL"},
      {"measurement": "Tmax of 100", "setting": "female, SD, iv, 1 mg/kg", "result": 0.25, "unit": "h"},
      {"measurement": "Cmax", "setting": "female, SD, iv, 1 mg/kg, Cmax of 100", "result": 2380, "unit": "ng/mL"},
      {"measurement": "MRT", "setting": "female, SD, iv, 1 mg/kg", "result": 2.68, "unit": "h"},
      {"measurement": "Tmax", "setting": "female, SD, iv, 1 mg/kg", "result": 0.25, "unit": "h"},
      {"measurement": "AUC(0-inf)", "setting": "female, SD, iv, 1.5 mg/kg", "result": 8640, "unit": "ng·h/mL"},
      {"measurement": "AUC(0-t)", "setting": "female, SD, iv, 1.5 mg/kg", "result": 7400, "unit": "ng·h/mL"},
      {"measurement": "Cmax", "setting": "female, SD, iv, 1.5 mg/kg, Cmax of 100", "result": 3660, "unit": "ng/mL"},
      {"measurement": "MRT", "setting": "female, SD, iv, 1.5 mg/kg", "result": 2.57, "unit": "h"},
      {"measurement": "half-life", "setting": "female, SD, iv, 1.5 mg/kg, T½ of 100", "result": 1.93, "unit": "h"},
      {"measurement": "concentration at 0.25 h", "setting": "[1]", "result": 15.3, "unit": "ng/g"},
      {"measurement": "concentration at 0.25 hr", "setting": "[1]", "result": 17.4, "unit": "ng/g"},
      {"measurement": "concentration at 1 hr", "setting": "[1]", "result": 6.31, "unit": "ng/g"},
      {"measurement": "concentration at 0.25 h", "setting": "[2]", "result": 520, "unit": "ng/g"},
      {"measurement": "concentration at 2 h", "setting": "[2]", "result": 109, "unit": "ng/g"},
      {"measurement": "concentration at 6 h", "setting": "[2]", "result": 4.8, "unit": "ng/g"},
      {"measurement": "concentration at 2 h", "setting": "female, Sprague-Dawley (SD), iv, 0.5 mg/kg, 100 plasma concentration", "result": 22.6, "unit": "ng/mL"},
      {"measurement": "concentration at 0.25 h", "setting": "[3]", "result": 1300, "unit": "ng/g"},
      {"measurement": "concentration at 1 h", "setting": "[3]", "result": 865, "unit": "ng/g"},
      {"measurement": "concentration at 0.25 h", "setting": "[4]", "result": 46.9, "unit": "ng/g"},
      {"measurement": "concentration at 1 h", "setting": "[4]", "result": 28.2, "unit": "ng/g"},
      {"measurement": "concentration at 2 h", "setting": "[4]", "result": 27.2, "unit": "ng/g"},
      {"measurement": "concentration at 6 h", "setting": "[4]", "result": 4.23, "unit": "ng/g"},
      {"measurement": "concentration at 0.25 h", "setting": "[5]", "result": 1980, "unit": "ng/g"},
      {"measurement": "concentration at 1 h", "setting": "[5]", "result": 2140, "unit": "ng/g"},
      {"measurement": "concentration at 2 h", "setting": "[5]", "result": 2400, "unit": "ng/g"},
      {"measurement": "concentration at 6 h", "setting": "[5]", "result": 407, "unit": "ng/g"},
      {"measurement": "concentration at 10 h", "setting": "[5]", "result": 5.25, "unit": "ng/g"},
      {"measurement": "100 liver concentration", "setting": "female, Sprague-Dawley (SD), iv, 1.5 mg/kg, 6 h", "result": 536, "unit": "ng/g"},
      {"measurement": "concentration at 0.25 h", "setting": "[6]", "result": 1000, "unit": "ng/mL"},
      {"measurement": "concentration at 1 h", "setting": "[6]", "result": 192, "unit": "ng/mL"},
      {"measurement": "concentration at 2 h", "setting": "[6]", "result": 25.8, "unit": "ng/mL"},
      {"measurement": "100 plasma concentration", "setting": "female, Sprague-Dawley, iv, 0.5 mg/kg, 2 h", "result": 19.4, "unit": "ng/mL"},
      {"measurement": "concentration at 0.25 h", "setting": "[7]", "result": 2120, "unit": "ng/mL"},
      {"measurement": "concentration at 1 h", "setting": "[7]", "result": 354, "unit": "ng/mL"},
      {"measurement": "concentration at 6 h", "setting": "[7]", "result": 3.27, "unit": "ng/mL"},
      {"measurement": "AUC(0-t)", "setting": "female, Sprague-Dawley, iv, 1.5 mg/kg", "result": "696 to 7400", "unit": "ng·h/mL"},
      {"measurement": "concentration at 0.25 h", "setting": "[8]", "result": 3780, "unit": "ng/mL"},
      {"measurement": "concentration at 1 h", "setting": "[8]", "result": 1760, "unit": "ng/mL"},
      {"measurement": "concentration at 2 h", "setting": "[8]", "result": 1310, "unit": "ng/mL"},
      {"measurement": "concentration at 6 h", "setting": "[8]", "result": 263, "unit": "ng/mL"},
      {"measurement": "half-life", "setting": "female, Sprague-Dawley, iv, 1.5 mg/kg, T1/2 of 100 in brain", "result": "1.67 to 1.93", "unit": "h"},
      {"measurement": "half-life", "setting": "female, Sprague-Dawley, iv, 1.5 mg/kg, T1/2 of 100 in liver", "result": "0.78 to 2.01", "unit": "h"},
      {"measurement": "half-life", "setting": "female, Sprague-Dawley, iv, 1.5 mg/kg, T1/2 of 100 in plasma", "result": "0.31 to 2.2", "unit": "h"},
      {"measurement": "Cmax", "setting": "female, Sprague-Dawley, iv, 1.5 mg/kg, mean Cmax of 100 in brain", "result": "17.4 to 43.5", "unit": "ng/g"},
      {"measurement": "Cmax", "setting": "female, Sprague-Dawley, iv, 1.5 mg/kg, mean Cmax of 100 in liver", "result": "586 to 2550", "unit": "ng/g"},
      {"measurement": "AUC of 100 versus dose level (statement)", "result": "increased proportionally"},
      {"measurement": "100 detectable in brain tissue samples", "setting": "iv", "result": "detectable"},
      {"measurement": "100 detectable in liver tissue samples", "setting": "iv", "result": "detectable"},
      {"measurement": "100 in brain tissue", "setting": "iv", "result": "below limit of quantification"},
      {"measurement": "100 in liver tissue", "setting": "iv", "result": "below limit of quantification"},
      {"measurement": "AUCINF of 100", "setting": "iv, 0.5 mg/kg", "result": 902.2, "unit": "ng·h/g"},
      {"measurement": "AUClast of 100 in brain", "setting": "iv, 1.5 mg/kg", "result": "10.8˜125.5 ng·h/g"},
      {"measurement": "AUClast of 100 in liver", "setting": "iv, 1.5 mg/kg", "result": "758.6˜9081.0 ng·h/g"}
    ]}
  ]
}
